Data published in patent publication US6583136B1, “Antifungal ethers” (Janssen Pharmacuetica N.V., priority 1999, dated 2003).

Experiments:
[1] = test system: Cryptococcus neoformans; assay: Determination of fungal susceptibility (MIC); type: cell-based; conditions: CYG medium, 5 days at 30° C., growth to 35% of control or less
Protocol: (§1) A panel of Candida isolates plus single isolates of the dermatophytes Microsporum canis, Trichophyton rubrum and Trichophyton mentagrophytes; Aspergillus fumigatus, and Cryptococcus neoformans were used to evaluate the activity of the test compounds in vitro. Inocula were prepared as broth cultures (yeasts) or as suspensions of fungal material made from agar slope cultures (moulds). The test compounds were pipetted from dimethylsulfoxide stock solution into water to provide a series of 10-fold dilutions. The fungal inocula were suspended in the growth medium CYG (F. C. Odds, Journal of Clinical Microbiology, 29, 2735-2740, 1991) at approximately 50,000 colony-forming units (CFU) per ml and added to the aqueous test drugs. The cultures were set up in the 96 wells of plastic microdilution plates and they were incubated for 2 days at 37° C. (Candida spp.) or for 5 days at 30° C. (other fungi). Growth in the microcultures was measured by their optical density (OD) measured at a wavelength of 405 nm. The OD for cultures with test compounds was calculated as a percentage of the OD for control cultures, i.e. the OD for cultures without test compounds. Inhibition of growth to 35% of control or less was recorded as significant inhibition.
(§2) Minimal inhibitory concentration (MIC; in 10^−6 M) of some of the compounds of formula (I) for Candida glabrata, Candida krusei, Candida parapsilosis, Candida albicans, Candida kefyr, Candida tropicalis, Microsporum canis, Trichophyton rubrum, Trichophyton mentagrophytes, Cryptococcus neoformans and Aspergillus fumigatus are listed in table 3.

[2] = test system: Aspergillus fumigatus; assay: Determination of fungal susceptibility (MIC); type: cell-based; conditions: CYG medium, 5 days at 30° C., growth to 35% of control or less
Protocol: as §1, §2

[3] = test system: Microsporum canis; assay: Determination of fungal susceptibility (MIC); type: cell-based; conditions: CYG medium, 5 days at 30° C., growth to 35% of control or less
Protocol: as §1, §2

[4] = test system: Trichophyton mentagrophytes; assay: Determination of fungal susceptibility (MIC); type: cell-based; conditions: CYG medium, 5 days at 30° C., growth to 35% of control or less
Protocol: as §1, §2

[5] = test system: Candida krusei; assay: Determination of fungal susceptibility (MIC); type: cell-based; conditions: CYG medium, 2 days at 37° C., growth to 35% of control or less
Protocol: as §1, §2

[6] = test system: Candida albicans; assay: Determination of fungal susceptibility (MIC); type: cell-based; conditions: CYG medium, 2 days at 37° C., growth to 35% of control or less
Protocol: as §1, §2

[7] = test system: Candida tropicalis; assay: Determination of fungal susceptibility (MIC); type: cell-based; conditions: CYG medium, 2 days at 37° C., growth to 35% of control or less
Protocol: as §1, §2

[8] = test system: Candida kefyr; assay: Determination of fungal susceptibility (MIC); type: cell-based; conditions: CYG medium, 2 days at 37° C., growth to 35% of control or less
Protocol: as §1, §2

[9] = test system: Trichophyton rubrum; assay: Determination of fungal susceptibility (MIC); type: cell-based; conditions: CYG medium, 5 days at 30° C., growth to 35% of control or less
Protocol: as §1, §2

[10] = test system: Candida parapsilosis; assay: Determination of fungal susceptibility (MIC); type: cell-based; conditions: CYG medium, 2 days at 37° C., growth to 35% of control or less
Protocol: as §1, §2

[11] = test system: Candida glabrata; assay: Determination of fungal susceptibility (MIC); type: cell-based; conditions: CYG medium, 2 days at 37° C., growth to 35% of control or less
Protocol: as §1, §2

[12] = Water solubility in citric acid/Na2HPO4 buffered water; type: physicochemical; conditions: water buffered with citric acid/Na2HPO4, aqueous buffer, thermodynamic from solid, UV spectroscopy
Protocol: An excess of compound was added to water buffered with 0.1 M citric acid and 0.2 M Na2HPO4 in a ratio of 61.5/38.5 (pH=4). The mixture was shaken during 1 day at room temperature. The precipitate was filtered off.

Structure (SMILES) | MIC values in 10^−6 M [1] | MIC values in 10^−6 M [2] | MIC values in 10^−6 M [3] | MIC values in 10^−6 M [4] | MIC values in 10^−6 M [5] | MIC values in 10^−6 M [6] | MIC values in 10^−6 M [7] | MIC values in 10^−6 M [8] | MIC values in 10^−6 M [9] | MIC values in 10^−6 M [10] | MIC values in 10^−6 M [11] | solubility at 1 day ([12]; pH 3.65, shaken 1 day at room temperature) [µg/mL] | solubility at 1 day ([12]; pH 4.05, shaken 1 day at room temperature) [µg/mL]
CC(OCC(N)Cc1ccccc1)C(C)n1ncn(-c2ccc(N3CCN(c4ccc(OCC5COC(Cn6cncn6)(c6ccc(F)cc6F)O5)cc4)CC3)cc2)c1=O (stereo not drawn) [Compound 3] | 0.1 10^−6 M | 1 10^−6 M | 1 10^−6 M | 1 10^−6 M | 1 10^−6 M | <0.01 10^−6 M | 0.1 10^−6 M | <0.01 10^−6 M | 0.1 10^−6 M | <0.01 10^−6 M | 1 10^−6 M | > 7090 | 
CCC(COCCN(CC)CC)n1ncn(-c2ccc(N3CCN(c4ccc(OCC5COC(Cn6cncn6)(c6ccc(F)cc6F)O5)cc4)CC3)cc2)c1=O (stereo not drawn) [Compound 5] | 1 10^−6 M | 1 10^−6 M | <0.1 10^−6 M | 10 10^−6 M | 10 10^−6 M | <0.1 10^−6 M | 1 10^−6 M | <0.1 10^−6 M | 10 10^−6 M | <0.1 10^−6 M | 10 10^−6 M |  | > 12000
